Biological target: T1, Human recombinant CD38 (Homo sapiens, UniProt P28907)
T1 construct: purchased BPS Bioscience
T1 sequence (P28907 1-300): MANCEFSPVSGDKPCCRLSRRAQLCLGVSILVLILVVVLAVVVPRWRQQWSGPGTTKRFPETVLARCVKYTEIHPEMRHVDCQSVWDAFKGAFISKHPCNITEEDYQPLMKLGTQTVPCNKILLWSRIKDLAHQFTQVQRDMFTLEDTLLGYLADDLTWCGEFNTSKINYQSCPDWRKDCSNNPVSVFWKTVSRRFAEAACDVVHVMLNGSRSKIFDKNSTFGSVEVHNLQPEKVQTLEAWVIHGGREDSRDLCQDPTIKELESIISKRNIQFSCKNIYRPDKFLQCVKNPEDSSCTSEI
Experiment: CD38 hydrolase inhibition assay (ε-NAD substrate, fluorescence)
Assay type: biochemical
Conditions: 0.2 ng/μL CD38, 100 μM ε-NAD, 15 m at room temperature, excitation 300 nm, emission 410 nm
Procedure: Example 9: CD38 Hydrolase Inhibition Assay
The CD38 hydrolase inhibition assay measures the glycohydrolase activity of CD38, using an NAD analog as substrate and measuring formation of a fluorescent ADP ribose analog. A 4× buffer was prepared with 1M sucrose and 160 mM Tris-HCl at pH 7.4, for a final assay concentration of 250 mM sucrose and 40 mM Tris-HCl. The 4× solution was kept at 4° C. and warmed to room temperature before use. Tween20 was added to 1× buffer for a final concentration of 0.05%. Human recombinant CD38 (BPS Bioscience) was diluted to 0.4 ng/μL in 1× buffer and 12.5 μL added to each plate well. Inhibitors were added and DMSO content was normalized to the highest concentration on the plate, with an upper limit of 0.5%. Finally, ε-NAD was diluted to 200 μM in 1× buffer and 12.5 μL added to each plate well, for final well concentrations of 0.2 ng/μL CD38 and 100 μM ε-NAD. Plates were covered and incubated at room temperature for 15 m, and then read on a plate reader using excitation 300 nm and emission 410 nm. […] IC50s for test compounds were determined either using GraphPad Prism software v9.3, or CDD Vault.

| Structure (SMILES) | IC50 |
| --- | --- |
| CO[C@H]1CC[C@H](NC(=O)c2cc(C)cc(-n3ccnc3)c2)CC1 [Compound 101, 3-(imidazol-1-yl)-5-methyl-N-[(trans)-4-methoxycyclohexyl]benzamide] | 100 to 1000 nM |
| CO[C@H]1CC[C@H](NC(=O)c2cc(-c3cnn(C)c3)cc(-n3ccnc3)c2)CC1 [Compound 102, 3-(imidazol-1-yl)-5-(1-methylpyrazol-4-yl)-N-[(trans)-4-methoxycyclohexyl]benzamide] | < 100 nM |
| CO[C@H]1CC[C@H](NC(=O)c2cc(N3CC[C@H](O)C3)cc(-n3ccnc3)c2)CC1 [Compound 104, 3-[(3S)-3-hydroxypyrrolidin-1-yl]-5-(imidazol-1-yl)-N-[(trans)-4-methoxycyclohexyl]benzamide] | 100 to 1000 nM |
| CO[C@H]1CC[C@H](NC(=O)c2cc(-c3cncs3)cc(N3CCC[C@@H]3CO)c2)CC1 [Compound 105, 3-[(2R)-2-(hydroxymethyl)pyrrolidin-1-yl]-N-[(trans)-4-methoxycyclohexyl]-5-(1,3-thiazol-5-yl)benzamide] | 100 to 1000 nM |
| COCCO[C@H]1CC[C@H](NC(=O)c2cc(-c3cnn(C)c3)cc(-c3cncs3)c2)CC1 [Compound 107, 3-(1-methylpyrazol-4-yl)-N-[(trans)-4-(2-methoxyethoxy)cyclohexyl]-5-(1,3-thiazol-5-yl)benzamide] | < 100 nM |
| CO[C@H]1CC[C@H](NS(=O)(=O)c2cc(C)cc(-n3ccnc3)c2)CC1 [Compound 108, 3-(imidazol-1-yl)-5-methyl-N-[(trans)-4-methoxycyclohexyl]benzene sulfonamide] | > 1000 nM |

Source: US20260174742A1, “INHIBITORS OF CYCLIC ADP RIBOSE HYDROLASE AND METHODS OF USE THEREOF” (Flagship Pioneering Innovations VI, LLC, priority 2022, published 2026)
